Results from the supplement of paper PMC10307832.

Assays:
Assay in all cases: relative viability (nuclei count vs DMSO), 5 days (fraction); higher = more cells survive
AT9283 + Linsitinib = compound: O=C(Nc1c[nH]nc1-c1nc2ccc(CN3CCOCC3)cc2[nH]1)NC1CC1 [AT9283] + C[C@]1(O)C[C@@H](c2nc(-c3ccc4ccc(-c5ccccc5)nc4c3)c3c(N)nccn32)C1 [Linsitinib] (partner 1 µM)
How it was run: (§1)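 Cells from lung cancer lines were seeded into 1536-well plates and, one day later, dosed by pin tool. Treatments were either a single drug or a fixed dose of an anchor drug with five library-drug doses (not always all listed) in √10 steps. After 5 days, nuclei were stained in a one-step fixation (final 0.05% Triton X-100, 1% formaldehyde, 1 ug/ml Hoechst) and counted on 4× images, and relative viability is the treated-to-vehicle nuclei ratio, as the median of duplicate plates.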

AT9283 + Pemetrexed = compound: O=C(Nc1c[nH]nc1-c1nc2ccc(CN3CCOCC3)cc2[nH]1)NC1CC1 [AT9283] + Nc1nc2[nH]cc(CCc3ccc(C(=O)N[C@@H](CCC(=O)O)C(=O)O)cc3)c2c(=O)[nH]1 [Pemetrexed] (partner 0.2 µM)
How it was run: as §1

Erlotinib + Tozasertib = compound: C#Cc1cccc(Nc2ncnc3cc(OCCOC)c(OCCOC)cc23)c1 [Erlotinib] + Cc1cc(Nc2cc(N3CCN(C)CC3)nc(Sc3ccc(NC(=O)C4CC4)cc3)n2)n[nH]1 [Tozasertib] (partner 0.1 µM)
How it was run: as §1

Erlotinib + Bortezomib = compound: C#Cc1cccc(Nc2ncnc3cc(OCCOC)c(OCCOC)cc23)c1 [Erlotinib] + CC(C)C[C@H](NC(=O)[C@H](Cc1ccccc1)NC(=O)c1cnccn1)B(O)O [Bortezomib] (partner 0.002 µM)
How it was run: as §1

AT9283 + Olaparib = compound: O=C(Nc1c[nH]nc1-c1nc2ccc(CN3CCOCC3)cc2[nH]1)NC1CC1 [AT9283] + O=C(c1cc(Cc2n[nH]c(=O)c3ccccc23)ccc1F)N1CCN(C(=O)C2CC2)CC1 [Olaparib] (partner 8 µM)
How it was run: as §1

Cell Line	relative viability (AT9283 + Linsitinib; first compound 0.003 µM)	relative viability (AT9283 + Linsitinib; first compound 0.03 µM)	relative viability (AT9283 + Linsitinib; first compound 0.09487 µM)	relative viability (AT9283 + Linsitinib; first compound 0.3 µM)	relative viability (AT9283 + Pemetrexed; first compound 0.003 µM)	relative viability (AT9283 + Pemetrexed; first compound 0.03 µM)	relative viability (AT9283 + Pemetrexed; first compound 0.09487 µM)	relative viability (AT9283 + Pemetrexed; first compound 0.3 µM)	relative viability (Erlotinib + Tozasertib; first compound 0.02 µM)	relative viability (Erlotinib + Tozasertib; first compound 0.2 µM)	relative viability (Erlotinib + Tozasertib; first compound 0.6325 µM)	relative viability (Erlotinib + Tozasertib; first compound 2 µM)	relative viability (Erlotinib + Bortezomib; first compound 0.02 µM)	relative viability (Erlotinib + Bortezomib; first compound 0.2 µM)	relative viability (Erlotinib + Bortezomib; first compound 0.6325 µM)	relative viability (Erlotinib + Bortezomib; first compound 2 µM)	relative viability (AT9283 + Olaparib; first compound 0.003 µM)	relative viability (AT9283 + Olaparib; first compound 0.03 µM)	relative viability (AT9283 + Olaparib; first compound 0.09487 µM)	relative viability (AT9283 + Olaparib; first compound 0.3 µM)
COR-L23	0.867	0.152	0.0945	0.135	0.213	0.165	0.137	0.137	0.253	0.202	0.163	0.114	1.12	1.15	1.23	0.839	0.331	0.156	0.115	0.137
NCI-H23	0.801	0.338	0.232	0.145	0.675	0.749	0.296	0.238	0.387	0.344	0.299	0.26	0.915	–	1.32	0.917	0.334	0.297	0.3	0.211
NCI-H1975	0.932	0.769	0.341	0.223	0.295	0.282	0.27	0.276	0.773	0.549	0.251	0.142	0.381	0.355	0.451	0.303	0.731	0.723	0.783	0.647
NCI-H3122	0.963	0.885	0.346	0.166	0.2	0.191	0.176	0.123	0.489	0.444	0.44	0.297	1.01	1.03	1.05	1.05	0.561	0.571	0.351	0.241
EMC-BAC-2	0.85	0.634	0.205	0.226	0.466	0.414	0.367	0.266	0.279	0.345	0.32	0.25	1.09	0.972	1.05	–	0.502	0.301	0.261	0.203
NCI-H2085	0.847	0.687	0.245	0.214	0.959	0.9	0.537	0.441	0.808	0.637	0.598	0.404	1.04	0.979	0.889	0.766	0.834	0.772	0.629	0.292
NCI-H1355	0.807	0.649	0.273	0.167	0.989	1.02	0.719	0.301	0.567	0.538	0.4	0.266	1.14	1.1	1.24	0.992	0.803	0.708	0.329	0.246
NCI-H1755	0.996	0.847	0.516	0.404	0.438	0.415	0.361	0.301	–	0.561	0.505	0.422	1.06	1.01	0.957	0.9	0.987	0.859	0.53	0.45
COR-L 105	0.854	0.333	0.221	0.288	1.08	0.699	0.341	0.422	0.335	0.305	0.217	0.227	0.828	0.342	0.407	0.335	0.625	0.408	0.37	0.325
NCI-H647	1.11	0.17	0.151	0.11	0.168	0.127	0.0669	0.0634	0.257	0.179	0.28	0.136	1.05	0.961	1.36	0.795	0.555	0.311	0.0867	0.0596
BEN	0.718	0.894	0.2	0.227	0.622	0.692	0.361	0.365	0.593	0.462	0.468	0.436	0.644	0.864	1.28	0.886	0.969	0.747	0.481	0.298
EPLC-272H	1.26	1.25	0.973	0.183	0.358	0.212	0.177	0.138	0.22	0.291	0.235	0.183	–	0.875	0.989	0.828	0.698	0.18	0.107	0.119
HCC-15	0.831	0.424	0.155	0.146	0.223	0.208	0.143	0.159	0.411	0.444	0.398	0.16	1.01	1.12	1.12	0.969	0.691	0.574	0.192	0.183
NCI-H520	0.926	0.37	0.291	0.181	0.702	0.302	0.303	0.198	0.427	0.471	0.466	0.432	0.75	0.261	0.722	0.455	0.32	0.205	0.223	0.22
EKVX	0.966	0.79	0.434	0.204	0.436	0.352	0.211	0.204	0.329	0.226	0.212	0.111	1.13	0.513	0.323	0.17	0.796	0.758	0.496	0.239
NCI-H596	1.06	1.01	0.912	0.564	0.512	0.574	0.529	0.462	0.805	0.848	0.69	0.722	1.01	0.993	1.09	0.93	0.653	0.663	0.619	0.567
